In PubChem BioAssay AID250 (DTP/NCI, 2004):
Where “and” joins values, the source holds several entries; their conditions need not be identical. Equal values may be shown once. Inconclusive results and toxic doses are left out.

Test system: BDF1 mice, L1210 leukemia sc, survival T/C
Test: NCI In Vivo Anticancer Drug Screen. Data for tumor model L1210 Leukemia (subcutaneous) in B6D2F1 (BDF1) mice
Details: endpoint: median survival time, higher = longer survival
Procedure, shortened: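 Read-out: T/C ratio, i.e. survival or tumor size in treated mice over that in vehicle-treated controls, from mice bearing transplantable tumors.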

CC(CN1CC(=O)NC(=O)C1)N1CC(=O)NC(=O)C1 (stereo unspecified)
T/C (dose: 3.12 mg/kg/injection, schedule: Q03HX024 (ip), vehicle: other): 115 % of control
T/C (dose: 3.12 mg/kg/injection, schedule: Q03HX024 (ip), vehicle: steriod suspending solution): 111 % of control
T/C (dose: 6.25 mg/kg/injection, schedule: Q03HX024 (ip), vehicle: other): 156 % of control
T/C (dose: 6.25 mg/kg/injection, schedule: Q03HX024 (ip), vehicle: steriod suspending solution): 155 % of control
T/C (dose: 8.4 mg/kg/injection, schedule: Q03HX024 (sc), vehicle: Klucel (hydroxypropylcellulose) (HPC)): 150 % of control
T/C (dose: 10.0 mg/kg/injection, schedule: Q03HX024 (sc), vehicle: Klucel (hydroxypropylcellulose) (HPC)): 184 % of control and 185 % of control
T/C (dose: 12.5 mg/kg/injection, schedule: Q01DX009 (sc), vehicle: steriod suspending solution): 105 % of control
T/C (dose: 12.5 mg/kg/injection, schedule: Q03HX024 (ip), vehicle: other): 191 % of control
T/C (dose: 12.5 mg/kg/injection, schedule: Q03HX024 (ip), vehicle: steriod suspending solution): 161 % of control
T/C (dose: 14.0 mg/kg/injection, schedule: Q03HX024 (sc), vehicle: Klucel (hydroxypropylcellulose) (HPC)): 180 % of control
T/C (dose: 16.0 mg/kg/injection, schedule: Q01DX009 (ip), vehicle: Klucel (hydroxypropylcellulose) (HPC)): 109 % of control and 124 % of control
T/C (dose: 16.0 mg/kg/injection, schedule: Q01DX009 (ip), vehicle: other): 119 % of control
T/C (dose: 20.0 mg/kg/injection, schedule: Q03HX024 (sc), vehicle: Klucel (hydroxypropylcellulose) (HPC)): 194 % of control and 195 % of control
T/C (dose: 23.0 mg/kg/injection, schedule: Q03HX024 (sc), vehicle: Klucel (hydroxypropylcellulose) (HPC)): 200 % of control
T/C (dose: 25.0 mg/kg/injection, schedule: Q01DX009 (sc), vehicle: steriod suspending solution): 120 % of control
T/C (dose: 25.0 mg/kg/injection, schedule: Q03HX024 (ip), vehicle: other): 160 % of control
T/C (dose: 25.0 mg/kg/injection, schedule: Q03HX024 (ip), vehicle: steriod suspending solution): 155 % of control
T/C (dose: 39.0 mg/kg/injection, schedule: Q03HX024 (sc), vehicle: Klucel (hydroxypropylcellulose) (HPC)): 205 % of control
T/C (dose: 40.0 mg/kg/injection, schedule: Q03HX024 (sc), vehicle: Klucel (hydroxypropylcellulose) (HPC)): 199 % of control and 200 % of control
T/C (dose: 50.0 mg/kg/injection, schedule: Q01DX009 (ip), vehicle: steriod suspending solution): 150 % of control
T/C (dose: 50.0 mg/kg/injection, schedule: Q01DX009 (sc), vehicle: steriod suspending solution): 155 % of control
T/C (dose: 50.0 mg/kg/injection, schedule: Q04DX003 (sc), vehicle: Klucel (hydroxypropylcellulose) (HPC)): 110 % of control and 112 % of control
T/C (dose: 64.0 mg/kg/injection, schedule: Q01DX009 (ip), vehicle: Klucel (hydroxypropylcellulose) (HPC)): 154 % of control
T/C (dose: 65.0 mg/kg/injection, schedule: Q01DX009 (sc), vehicle: Klucel (hydroxypropylcellulose) (HPC)): 170 % of control
T/C (dose: 65.0 mg/kg/injection, schedule: Q03HX024 (sc), vehicle: Klucel (hydroxypropylcellulose) (HPC)): 205 % of control
T/C (dose: 80.0 mg/kg/injection, schedule: Q03HX024 (sc), vehicle: Klucel (hydroxypropylcellulose) (HPC)): 118 % of control and 120 % of control
T/C (dose: 100.0 mg/kg/injection, schedule: Q01DX009 (ip), vehicle: steriod suspending solution): 110 % of control
T/C (dose: 100.0 mg/kg/injection, schedule: Q01DX009 (sc), vehicle: steriod suspending solution): 150 % of control and 175 % of control
T/C (dose: 100.0 mg/kg/injection, schedule: Q04DX003 (ip), vehicle: other): 117 % of control
T/C (dose: 100.0 mg/kg/injection, schedule: Q04DX003 (ip), vehicle: steriod suspending solution): 120 % of control
T/C (dose: 100.0 mg/kg/injection, schedule: Q04DX003 (sc), vehicle: steriod suspending solution): 100 % of control and 120 % of control
T/C (dose: 108.0 mg/kg/injection, schedule: Q01DX009 (sc), vehicle: Klucel (hydroxypropylcellulose) (HPC)): 160 % of control
T/C (dose: 108.0 mg/kg/injection, schedule: Q04DX003 (sc), vehicle: Klucel (hydroxypropylcellulose) (HPC)): 118 % of control and 122 % of control
T/C (dose: 200.0 mg/kg/injection, schedule: Q01DX009 (ip), vehicle: steriod suspending solution): 90 % of control
T/C (dose: 200.0 mg/kg/injection, schedule: Q01DX009 (sc), vehicle: steriod suspending solution): 90 % of control
T/C (dose: 200.0 mg/kg/injection, schedule: Q04DX003 (ip), vehicle: Klucel (hydroxypropylcellulose) (HPC)): 150 % of control
T/C (dose: 200.0 mg/kg/injection, schedule: Q04DX003 (ip), vehicle: other): 175 % of control
T/C (dose: 200.0 mg/kg/injection, schedule: Q04DX003 (ip), vehicle: steriod suspending solution): 150 % of control and 175 % of control
T/C (dose: 200.0 mg/kg/injection, schedule: Q04DX003 (sc), vehicle: steriod suspending solution): 100 % of control
T/C (dose: 256.0 mg/kg/injection, schedule: Q01DX009 (ip), vehicle: Klucel (hydroxypropylcellulose) (HPC)): 116 % of control and 121 % of control
T/C (dose: 256.0 mg/kg/injection, schedule: Q01DX009 (ip), vehicle: other): 105 % of control
T/C (dose: 300.0 mg/kg/injection, schedule: Q01DX009 (sc), vehicle: Klucel (hydroxypropylcellulose) (HPC)): 120 % of control
T/C (dose: 300.0 mg/kg/injection, schedule: Q04DX003 (sc), vehicle: Klucel (hydroxypropylcellulose) (HPC)): 160 % of control and 169 % of control and 177 % of control
T/C (dose: 400.0 mg/kg/injection, schedule: Q04DX003 (ip), vehicle: Klucel (hydroxypropylcellulose) (HPC)): 206 % of control
T/C (dose: 400.0 mg/kg/injection, schedule: Q04DX003 (ip), vehicle: other): 156 % of control and 207 % of control
T/C (dose: 400.0 mg/kg/injection, schedule: Q04DX003 (ip), vehicle: steriod suspending solution): 155 % of control and 185 % of control and 205 % of control
T/C (dose: 500.0 mg/kg/injection, schedule: Q01DX009 (sc), vehicle: Klucel (hydroxypropylcellulose) (HPC)): 100 % of control
T/C (dose: 512.0 mg/kg/injection, schedule: Q01DX009 (ip), vehicle: Klucel (hydroxypropylcellulose) (HPC)): 107 % of control
T/C (dose: 800.0 mg/kg/injection, schedule: Q04DX003 (ip), vehicle: Klucel (hydroxypropylcellulose) (HPC)): 112 % of control
T/C (dose: 800.0 mg/kg/injection, schedule: Q04DX003 (ip), vehicle: other): 111 % of control and 118 % of control
T/C (dose: 800.0 mg/kg/injection, schedule: Q04DX003 (ip), vehicle: steriod suspending solution): 100 % of control and 110 % of control and 120 % of control
T/C (dose: 800.0 mg/kg/injection, schedule: Q04DX003 (sc), vehicle: steriod suspending solution): 110 % of control and 120 % of control
T/C (dose: 833.0 mg/kg/injection, schedule: Q04DX003 (oral), vehicle: Klucel (hydroxypropylcellulose) (HPC)): 161 % of control and 168 % of control
T/C (dose: 833.0 mg/kg/injection, schedule: Q04DX003 (sc), vehicle: Klucel (hydroxypropylcellulose) (HPC)): 107 % of control and 111 % of control
T/C (dose: 840.0 mg/kg/injection, schedule: Q04DX003 (oral), vehicle: Klucel (hydroxypropylcellulose) (HPC)): 186 % of control and 188 % of control
T/C (dose: 1388.0 mg/kg/injection, schedule: Q04DX003 (sc), vehicle: Klucel (hydroxypropylcellulose) (HPC)): 100 % of control
